We go through four compounds from patent publication US20170035708A1, “USE OF N-(4-TERT-BUTYLBENZYL)-3-CHLORO-N-[2-(4-CHLORO-3-ETHYL-PHENYL)-ETHYL]-2-FLUORO-5-TRIFLUOROMETHYL-BENZAMIDE FOR THE TREATMENT OF EYE DISEASES” (Hoffmann-La Roche Inc., priority 2013, published 2017).

This assay has as its system Human umbilical vein endothelial cells (HUVEC). In words: alamarBlue viability assay in HUVECs. The class given is cell-based. The note with it: 72 h. Here is the method:
Human umbilical vein endothelial cells (HUVEC), the growth medium EGM and the basal medium EBM was obtained from Lonza. Additional FCS for the starving medium was used form Invitrogen.
The viability assay with alamarBlue® from Invitrogen was done in 96 well gelatin coated plates from BD.
The tested compounds were dissolved in DMSO at a stock concentration of 10 mM.
VEGF-A165 was obtained from R&D Systems® and has been dissolved at a stock concentration of 100 ug/ml in PBS.
HUVECs cells were maintained in Endothial growth medium (EGM) until Passage 5. For the viability assay HUVECs have been seeded in EBM with 0.5% FCS on gelatin coated 96 well plates at a cell density of 11.000 cells/well. Outer wells were left free and have been filled with medium afterwards. Cells were incubated overnight in a cell culture incubator at 37° C. with 5% CO2. Compounds and VEGF have been diluted in EBM/0.5% FCS to a 20× working concentration. 5 ul of the 20× pre-dilution have been added to the cells. HUVECs which have to be intended to grow under hypoxia conditions have been transferred to a cell culture incubator with 1% O2, 5% CO2 and 37° C. HUVECs grown under normoxia conditions were incubated in a normal cell culture incubator. After 72 h, 11 ul of alamarBlue® have been added to each well of the cells subsequently incubated for 4 h in the cell culture incubator. The absorbance has been detected at 570 nm with a reference wavelength of 600 nm.

As for `COc1cc(F)c(C(C)C)cc1-c1ccc(C(F)(F)F)cc1CN1C(=O)O[C@H](c2cc(C(F)(F)F)cc(C(F)(F)F)c2)[C@@H]1C` [Anacetrapib, (4S,5R)-5-[3,5-bis(trifluoromethyl)phenyl]-3-({2-[4-fluoro-2-methoxy-5-(propan-2-yl)phenyl]-5-(trifluoromethyl)phenyl}methyl)-4-methyl-1,3-oxazolidin-2-one], the “alamarBlue assay OD 570 nm-600 nm” value (4.1 nM, hypoxia) worked out at 0.0003; the “alamarBlue assay OD 570 nm-600 nm” value (4.1 nM, normoxia) is on record as 0.0096; the “alamarBlue assay OD 570 nm-600 nm” value (10.2 nM, hypoxia) turned out to be 0.0065; the “alamarBlue assay OD 570 nm-600 nm” value (10.2 nM, normoxia) worked out at 0.0170; the “alamarBlue assay OD 570 nm-600 nm” value (25.6 nM, hypoxia) is 0.0014; the “alamarBlue assay OD 570 nm-600 nm” value (25.6 nM, normoxia) was determined as 0.0203. The “alamarBlue assay OD 570 nm-600 nm” value is listed as 0.0093 (64 nM, hypoxia); 0.0119 (64 nM, normoxia); −0.0022 (160 nM, hypoxia); 0.0168 (160 nM, normoxia); 0.0260 (400 nM, hypoxia); 0.0352 (400 nM, normoxia). In addition, the “alamarBlue assay OD 570 nm-600 nm” value is, setting by setting: (1000 nM, hypoxia) 0.0565; (1000 nM, normoxia) 0.0662; (2500 nM, hypoxia) 0.0814; (2500 nM, normoxia) 0.0846. Also, the “effect on viability of HUVECs” value is “positive effect on viability, albeit with lower efficacy” (hypoxia) and “positive effect of viability” (normoxia).

For the compound `Cc1cc(C)c2c(c1)[C@@H](N(Cc1cc(C(F)(F)F)cc(C(F)(F)F)c1)c1nnn(C)n1)CCCN2C[C@H]1CC[C@H](C(=O)O)CC1` [Evacetrapib, Trans-4-({(5S)-5-[{[3,5-bis(trifluoromethyl)phenyl]methyl}(2-methyl-2H-tetrazol-5-yl)amino]-7,9-dimethyl-2,3,4,5-tetrahydro-1H-benzazepin-1-yl}methyl) cydohexanecarboxylic acid], the “alamarBlue assay OD 570 nm-600 nm” value turned out to be 0.0141 (4.1 nM, hypoxia); 0.0032 (4.1 nM, normoxia); 0.0129 (10.2 nM, hypoxia); 0.0158 (10.2 nM, normoxia); 0.0131 (25.6 nM, hypoxia); 0.0164 (25.6 nM, normoxia). In addition, the “alamarBlue assay OD 570 nm-600 nm” value runs as follows: (64 nM, hypoxia) 0.0076; (64 nM, normoxia) 0.0051; (160 nM, hypoxia) 0.0168; (160 nM, normoxia) 0.0227; (400 nM, hypoxia) 0.0403; (400 nM, normoxia) 0.0103. Also, the “alamarBlue assay OD 570 nm-600 nm” value (1000 nM, hypoxia) is 0.0564; the “alamarBlue assay OD 570 nm-600 nm” value (1000 nM, normoxia) is on record as 0.0191; the “alamarBlue assay OD 570 nm-600 nm” value (2500 nM, hypoxia) is −0.1084; the “alamarBlue assay OD 570 nm-600 nm” value (2500 nM, normoxia) is on record as −0.0107. Moreover, the “effect on viability of HUVECs” value is, setting by setting: (hypoxia) “negative effect on the cell viability”; (normoxia) “no influence of viability could be detected”.

Turning to `CCOC(=O)N1c2ccc(C(F)(F)F)cc2[C@@H](N(Cc2cc(C(F)(F)F)cc(C(F)(F)F)c2)C(=O)OC)C[C@H]1CC` [Torcetrapib, [2R, 4S] 4-[(3,5-bis-trifluoromethyl-benzyl)-methoxycarbonyl-amino]-2-ethyl-6-trifluoromethyl-3,4-dihydro-2H-quinoline-1-carboxylic acid ethyl ester], the “alamarBlue assay OD 570 nm-600 nm” value (4.1 nM, hypoxia) was 0.0129; the “alamarBlue assay OD 570 nm-600 nm” value (4.1 nM, normoxia) is given as 0.0020; the “alamarBlue assay OD 570 nm-600 nm” value (10.2 nM, hypoxia) is reported as 0.0200; the “alamarBlue assay OD 570 nm-600 nm” value (10.2 nM, normoxia) is −0.0004; the “alamarBlue assay OD 570 nm-600 nm” value (25.6 nM, hypoxia) turned out to be 0.0118; the “alamarBlue assay OD 570 nm-600 nm” value (25.6 nM, normoxia) is on record as 0.0160. Also, the “alamarBlue assay OD 570 nm-600 nm” value reads like this: (64 nM, hypoxia) 0.0111; (64 nM, normoxia) 0.0007; (160 nM, hypoxia) 0.0137; (160 nM, normoxia) 0.0194; (400 nM, hypoxia) 0.0308; (400 nM, normoxia) 0.0152. In addition, the “alamarBlue assay OD 570 nm-600 nm” value reads like this: (1000 nM, hypoxia) −0.0388; (1000 nM, normoxia) 0.0001; (2500 nM, hypoxia) −0.0784; (2500 nM, normoxia) 0.0138. In addition, the “effect on viability of HUVECs” value (hypoxia) is listed as “negative effect on the cell viability” and the “effect on viability of HUVECs” value (normoxia) is listed as “no influence of viability could be detected”.

With VEGF, the “viability measured at 570 nm (alamarBlue)” value (from here on “viability measured at 570 nm”) (VEGF 1.2 ng/ml, hypoxia) was 0.0480; the “viability measured at 570 nm” value (VEGF 1.2 ng/ml, normoxia) stood at 0.0268; the “viability measured at 570 nm” value (VEGF 2.3 ng/ml, hypoxia) is on record as 0.0679; the “viability measured at 570 nm” value (VEGF 2.3 ng/ml, normoxia) worked out at 0.0394; the “viability measured at 570 nm” value (VEGF 4.7 ng/ml, hypoxia) worked out at 0.0983; the “viability measured at 570 nm” value (VEGF 4.7 ng/ml, normoxia) turned out to be 0.0582. The “viability measured at 570 nm” value stood at 0.1114 (VEGF 9.4 ng/ml, hypoxia); 0.0908 (VEGF 9.4 ng/ml, normoxia); 0.1039 (VEGF 18.8 ng/ml, hypoxia); 0.1265 (VEGF 18.8 ng/ml, normoxia); 0.0927 (VEGF 37.5 ng/ml, hypoxia); 0.1449 (VEGF 37.5 ng/ml, normoxia). Also, the “viability measured at 570 nm” value (VEGF 75 ng/ml, hypoxia) is 0.0906; the “viability measured at 570 nm” value (VEGF 75 ng/ml, normoxia) is on record as 0.1642; the “viability measured at 570 nm” value (VEGF 150 ng/ml, hypoxia) was 0.0825; the “viability measured at 570 nm” value (VEGF 150 ng/ml, normoxia) is on record as 0.1618. The “survival signal in HUVECs in response to VEGF-A165” value (normoxia and hypoxia) was “dose dependent survival signal”.
